Structures can show the parent of a compound that is named as a salt.
Assays:
hTLR7 = target: T1, hTLR7 (Homo sapiens, UniProt Q9NYK1); assay: TLR7/TLR8 reporter assay, HEK-Blue hTLR7 reporter cells; assay type: cell-based; settings: 17 hours, optical density at 640 nm
T1 construct: host or cells: HEK-Blue hTLR7 (HEK293-derived reporter cell line)
T1 sequence (Q9NYK1 27-1049): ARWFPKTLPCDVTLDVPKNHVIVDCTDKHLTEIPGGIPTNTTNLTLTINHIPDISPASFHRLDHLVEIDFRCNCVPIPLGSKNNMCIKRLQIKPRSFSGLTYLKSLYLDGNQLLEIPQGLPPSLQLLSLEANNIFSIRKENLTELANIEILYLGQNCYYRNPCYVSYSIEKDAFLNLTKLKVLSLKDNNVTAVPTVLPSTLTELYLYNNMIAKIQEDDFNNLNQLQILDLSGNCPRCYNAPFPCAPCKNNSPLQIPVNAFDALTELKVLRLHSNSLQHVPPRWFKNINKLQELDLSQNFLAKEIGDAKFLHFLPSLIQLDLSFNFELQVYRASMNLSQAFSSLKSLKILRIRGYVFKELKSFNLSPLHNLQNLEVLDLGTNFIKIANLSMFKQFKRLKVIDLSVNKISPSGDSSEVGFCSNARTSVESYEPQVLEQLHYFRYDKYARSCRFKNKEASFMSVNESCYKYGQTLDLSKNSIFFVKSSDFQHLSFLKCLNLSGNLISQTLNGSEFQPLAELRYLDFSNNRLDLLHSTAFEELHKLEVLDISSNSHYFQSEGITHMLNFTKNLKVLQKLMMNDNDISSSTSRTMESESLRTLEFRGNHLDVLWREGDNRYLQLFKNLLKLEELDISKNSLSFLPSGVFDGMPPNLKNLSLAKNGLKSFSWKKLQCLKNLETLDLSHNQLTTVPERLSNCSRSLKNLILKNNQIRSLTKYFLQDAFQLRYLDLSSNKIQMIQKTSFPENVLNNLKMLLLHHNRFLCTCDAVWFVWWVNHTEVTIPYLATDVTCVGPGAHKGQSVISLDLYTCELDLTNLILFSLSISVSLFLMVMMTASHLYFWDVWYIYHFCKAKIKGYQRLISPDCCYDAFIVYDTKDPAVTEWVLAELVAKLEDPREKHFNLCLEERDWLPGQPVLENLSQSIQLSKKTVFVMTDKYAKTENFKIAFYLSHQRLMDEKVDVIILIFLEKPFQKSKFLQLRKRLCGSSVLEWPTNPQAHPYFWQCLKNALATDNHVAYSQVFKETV
Method: (§1) Reporter cells lines (namely HEK-Blue Null1, HEK-Blue hTLR7 and HEK-Blue hTLR8) are obtained from InvivoGen. Cells are passed/expanded/stored in liquid nitrogen per supplier's instruction. The cells are typically split twice per week in the growth media of DMEM supplemented with 10% fetal bovine serum, 1× NEAA, 1 mM Pyruvate, 2 mM glutamine, 50 μg/mL penicillin, 50 U/mL streptomycin (each from Gibco) in the presence of the following antibiotics, as shown in Table 3:
(§2) Test samples (at desired concentrations diluted in DMEM) are added to the 96-well assay plate, 20 μL per well. Reporter cells are harvested from the tissue culture flasks by incubation in PBS at 37° C. for two minutes after the media in the flask is removed and cells rinsed with PBS. Cells are counted and diluted in the HEK-Blue Detection media at 0.22×10^6 cells/mL. Then 180 μL of cells are added to the assay plate containing the 20 μL of test samples, and incubated for 17 hours at 37° C. in a 5% CO2 humidified incubator. Optical density at 640 nm is analyzed using an Envision (Perkin Elmer) plate reader.

hTLR8 = target: T2, hTLR8 (Homo sapiens, UniProt Q9NR97); assay: TLR7/TLR8 reporter assay, HEK-Blue hTLR8 reporter cells; assay type: cell-based; settings: 17 hours, optical density at 640 nm
T2 construct: host or cells: HEK-Blue hTLR8 (HEK293-derived reporter cell line)
T2 sequence (Q9NR97 27-1041): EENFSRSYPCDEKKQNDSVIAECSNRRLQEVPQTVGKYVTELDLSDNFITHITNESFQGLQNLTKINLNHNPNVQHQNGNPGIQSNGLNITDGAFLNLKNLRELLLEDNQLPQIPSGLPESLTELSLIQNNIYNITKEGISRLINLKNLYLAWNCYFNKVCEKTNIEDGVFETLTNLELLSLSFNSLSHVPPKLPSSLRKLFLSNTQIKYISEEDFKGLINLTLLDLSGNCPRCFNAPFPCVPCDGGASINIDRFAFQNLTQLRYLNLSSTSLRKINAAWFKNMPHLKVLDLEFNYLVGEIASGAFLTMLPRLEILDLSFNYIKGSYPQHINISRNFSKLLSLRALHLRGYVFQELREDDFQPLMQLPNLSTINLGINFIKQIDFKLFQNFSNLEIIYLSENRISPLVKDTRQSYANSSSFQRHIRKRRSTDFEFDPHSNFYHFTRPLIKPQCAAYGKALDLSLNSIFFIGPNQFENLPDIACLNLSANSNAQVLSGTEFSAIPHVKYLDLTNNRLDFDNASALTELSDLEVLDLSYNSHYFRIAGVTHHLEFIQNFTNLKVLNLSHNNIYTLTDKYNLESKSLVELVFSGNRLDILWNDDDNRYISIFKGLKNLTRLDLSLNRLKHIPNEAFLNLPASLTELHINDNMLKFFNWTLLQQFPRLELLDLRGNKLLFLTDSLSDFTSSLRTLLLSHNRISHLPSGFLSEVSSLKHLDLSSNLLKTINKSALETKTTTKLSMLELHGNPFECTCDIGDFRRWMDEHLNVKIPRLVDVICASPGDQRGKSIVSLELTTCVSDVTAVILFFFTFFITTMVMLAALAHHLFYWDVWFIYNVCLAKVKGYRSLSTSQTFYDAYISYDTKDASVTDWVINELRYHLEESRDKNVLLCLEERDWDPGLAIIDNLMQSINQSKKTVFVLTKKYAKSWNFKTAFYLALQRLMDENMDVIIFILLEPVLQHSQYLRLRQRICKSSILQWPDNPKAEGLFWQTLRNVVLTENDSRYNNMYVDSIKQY
Method: as §1, §2

Trop2− MiaPaca2 = assay: Antigen dependent human monocyte activation in mouse model, TROP2− tumor; assay type: in vivo; settings: NOD SCID mice with TROP2− tumor, 5-20 mg/kg intravenously, human monocytes injected intratumorally
Method: (§3) Human monocytes were prepared as described above. Trop2^+ MDA-MB-453 cells or Trop2^− MiaPaca2 were cultured by standard methods. A TLR8 benzazepine linker payload (LP) was prepared by attaching a MCC (N-maleimidomethyl]cyclohexane-1-carboxylate) linker in place of the mc-vc-PABA linker in Compound-Linker 2.1 to form Compound-Linker 2.22. TROP2-TLR8 benzazepine conjugates were prepared by conjugation of Compound-Linker 2.22 to a TROP2 antibody (sacituzumab) to form a conjugate with an average DAR of about 4.
(§4) On Day 1 NOD SCID mice were injected with 5×10^5 Trop2^+ MDA-MB-453 cells or Trop2-MiaPaca2 cells. Seven to ten days later when the tumor size reached about 300 mm^3, the mice were injected intraveneously with 5-20 mg/kg of the TROP2-TLR8 benzazepine conjugate or TROP2 antibody alone. Sixteen hours later, 10^6 human monocytes were injected intratumorally. Four to six hours later, the tumors were harvested and digested. Monocytes were identified by staining for cell surface markers and monocyte activation was determined by intracellular staining for IL-6.

Trop2+ MDA-MB-453 cells = assay: Antigen dependent human monocyte activation in mouse model, TROP2+ tumor; assay type: in vivo; settings: NOD SCID mice with TROP2+ tumor, 5-20 mg/kg intravenously, human monocytes injected intratumorally
Method: as §3, §4

CCCN(CCC)C(=O)C1=Cc2ccc(C(=O)Nc3cncc(CNC(=O)[C@@H](NC(=O)OCc4ccccc4)C(C)C)c3)cc2N=C(N)C1 [Compound 1.15, benzyl (S)-(1-(((5-(2-amino-4-(dipropyl-carbamoyl)-3H-benzo[b]azepine-8-carboxamido)pyridin-3-yl)methyl)amino)-3-methyl-1-oxobutan-2-yl)carbamate]
EC50 (hTLR7): > 1 µM | EC50 (hTLR8): < 0.5 µM

CCCN(CCC)C(=O)C1=Cc2ccc(C(=O)Nc3cncc(CNC(=O)[C@H](Cc4ccccc4)NC(=O)OCc4ccccc4)c3)cc2N=C(N)C1 [Compound 1.16, benzyl (S)-(1-(((5-(2-amino-4-(dipropyl-carbamoyl)-3H-benzo[b]azepine-8-carboxamido)pyridin-3-yl)methyl)amino)-1-oxo-3-phenylpropan-2-yl)carbamate]
EC50 (hTLR7): > 1 µM | EC50 (hTLR8): 0.5 to 1 µM

CCCN(CCC)C(=O)C1=Cc2ccc(C(=O)Nc3cncc(CNC(=O)[C@@H]4CCCN4C(=O)OCc4ccccc4)c3)cc2N=C(N)C1 [Compound 1.17, benzyl (S)-2-(((5-(2-amino-4-(dipropyl-carbamoyl)-3H-benzo[b]azepine-8-carboxamido)pyridin-3-yl)methyl)carbamoyl)pyrrolidine-1-carboxylate]
EC50 (hTLR7): > 1 µM | EC50 (hTLR8): < 0.5 µM

CCCN(CCC)C(=O)C1=Cc2ccc(C(=O)Nc3cccc([C@H]4CN(Cc5ccccc5)C[C@@H]4C(=O)OC)c3)cc2N=C(N)C1 [Compound 1.18, methyl (3R,4S)-4-(3-(2-amino-4-(dipropylcarbamoyl)-3H-benzo[b]azepine-8-carboxamido)phenyl)-1-benzylpyrrolidine-3-carboxylate trifluoroacetate salt]
EC50 (hTLR7): > 1 µM | EC50 (hTLR8): > 1 µM

control antibody: "TROP2 antibody alone"; "a TROP2 antibody (sacituzumab)"
human monocyte activation (intracellular staining for IL-6) (Trop2− MiaPaca2): did not cause human monocyte activation | human monocyte activation (intracellular staining for IL-6) (Trop2+ MDA-MB-453 cells): did not cause human monocyte activation
